Experimental findings from ChEMBL document CHEMBL5126513 (Eur J Med Chem, 2022) are described below.

For assay [1], the target named is T1, Protein cereblon/Tyrosine-protein kinase BTK (Homo sapiens, UniProt Q06187+Q96SW2). Description: Protac activity at CRBN/BTK in human MINO cells assessed as BTK degradation. The class given is cell-based.
Assay [2] concerns the target T2, Tyrosine-protein kinase TXK (Homo sapiens, UniProt P42681).
T2 sequence (P42681 whole entry): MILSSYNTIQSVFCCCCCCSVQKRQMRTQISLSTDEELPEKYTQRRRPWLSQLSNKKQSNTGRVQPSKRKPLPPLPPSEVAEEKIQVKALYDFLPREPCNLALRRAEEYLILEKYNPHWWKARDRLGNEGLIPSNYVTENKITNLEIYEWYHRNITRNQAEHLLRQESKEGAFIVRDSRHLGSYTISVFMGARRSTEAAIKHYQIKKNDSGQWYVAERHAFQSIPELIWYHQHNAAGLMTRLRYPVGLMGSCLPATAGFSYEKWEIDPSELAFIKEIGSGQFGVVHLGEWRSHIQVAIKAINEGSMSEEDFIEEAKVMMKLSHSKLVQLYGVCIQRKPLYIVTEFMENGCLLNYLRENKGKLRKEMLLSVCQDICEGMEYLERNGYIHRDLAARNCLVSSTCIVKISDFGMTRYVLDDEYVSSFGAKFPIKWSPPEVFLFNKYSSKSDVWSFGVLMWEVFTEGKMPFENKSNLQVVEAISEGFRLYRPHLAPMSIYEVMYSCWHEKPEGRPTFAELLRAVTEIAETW
As to the kind of experiment: Inhibition of TXK (unknown origin).

Assay [3] deals with Tyrosine-protein kinase Blk (Homo sapiens, UniProt P51451). Description: Inhibition of BLK (unknown origin).
Tyrosine-protein kinase Blk, sequence (P51451 whole entry): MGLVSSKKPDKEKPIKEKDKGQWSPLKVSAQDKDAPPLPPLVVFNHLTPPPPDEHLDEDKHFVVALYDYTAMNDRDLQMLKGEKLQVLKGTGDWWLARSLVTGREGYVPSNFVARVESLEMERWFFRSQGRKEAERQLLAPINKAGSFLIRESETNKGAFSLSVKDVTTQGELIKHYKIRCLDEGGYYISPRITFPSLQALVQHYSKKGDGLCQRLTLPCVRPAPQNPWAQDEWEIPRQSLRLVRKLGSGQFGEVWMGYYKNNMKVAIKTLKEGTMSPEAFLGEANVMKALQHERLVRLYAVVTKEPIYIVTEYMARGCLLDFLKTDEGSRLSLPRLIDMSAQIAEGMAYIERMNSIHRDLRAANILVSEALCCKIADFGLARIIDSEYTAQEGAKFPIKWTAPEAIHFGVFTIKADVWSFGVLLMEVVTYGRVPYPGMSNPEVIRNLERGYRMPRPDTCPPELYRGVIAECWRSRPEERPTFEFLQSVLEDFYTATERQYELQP
Assay [4] concerns the target T1, Protein cereblon/Tyrosine-protein kinase BTK. As to the kind of experiment: Protac activity at CRBN (unknown origin)/BTK (unknown origin) assessed as BTK degradation. The format is protein assay.
For assay [5], the target named is T3, Tyrosine-protein kinase BTK (Homo sapiens, UniProt Q06187). As to the kind of experiment: Inhibition of BTK (unknown origin).
T3 sequence (Q06187 whole entry): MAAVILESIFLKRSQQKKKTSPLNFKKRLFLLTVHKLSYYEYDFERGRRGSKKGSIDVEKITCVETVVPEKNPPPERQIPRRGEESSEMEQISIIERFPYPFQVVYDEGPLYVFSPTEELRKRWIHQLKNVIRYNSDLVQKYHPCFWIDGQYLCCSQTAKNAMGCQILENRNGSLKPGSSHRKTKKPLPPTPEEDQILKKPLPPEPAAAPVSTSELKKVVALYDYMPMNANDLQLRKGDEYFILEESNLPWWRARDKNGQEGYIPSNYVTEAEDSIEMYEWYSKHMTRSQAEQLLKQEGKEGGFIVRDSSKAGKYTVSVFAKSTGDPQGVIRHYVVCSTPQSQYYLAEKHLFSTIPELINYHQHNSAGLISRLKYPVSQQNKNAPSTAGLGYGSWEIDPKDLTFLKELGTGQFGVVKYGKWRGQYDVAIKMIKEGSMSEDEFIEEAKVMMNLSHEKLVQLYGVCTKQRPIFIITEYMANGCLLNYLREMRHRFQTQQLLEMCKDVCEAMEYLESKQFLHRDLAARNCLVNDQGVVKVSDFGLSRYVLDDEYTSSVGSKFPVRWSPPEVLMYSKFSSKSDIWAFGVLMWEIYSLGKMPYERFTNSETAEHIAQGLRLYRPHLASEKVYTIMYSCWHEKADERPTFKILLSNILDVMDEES
Assay [6] has as its target T3, Tyrosine-protein kinase BTK. As to the kind of experiment: Inhibition of full-length wild-type BTK (unknown origin) measured by HTRF assay. A general note: TR-FRET usually uses a lanthanide donor and a delayed reading to cut background.

Each structure is given as a SMILES string. Bounds are passed on as bounds.

T1 sequence (Q06187 whole entry): as above
T1 sequence (Q96SW2 whole entry): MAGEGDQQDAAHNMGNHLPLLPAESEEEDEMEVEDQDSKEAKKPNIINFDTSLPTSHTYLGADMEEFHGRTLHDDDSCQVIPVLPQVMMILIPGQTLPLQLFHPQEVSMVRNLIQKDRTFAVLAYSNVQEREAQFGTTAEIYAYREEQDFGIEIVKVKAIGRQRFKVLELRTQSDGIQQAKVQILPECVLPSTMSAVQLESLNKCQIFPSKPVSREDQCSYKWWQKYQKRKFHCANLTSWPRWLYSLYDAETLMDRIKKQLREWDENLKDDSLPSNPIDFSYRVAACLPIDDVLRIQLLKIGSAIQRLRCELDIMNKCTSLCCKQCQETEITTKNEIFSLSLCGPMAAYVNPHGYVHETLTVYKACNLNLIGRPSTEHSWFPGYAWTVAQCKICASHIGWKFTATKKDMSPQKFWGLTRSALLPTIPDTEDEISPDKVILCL

Turning to `Nc1ncnc2c1c(-c1ccc(Oc3ccccc3)cc1)nn2[C@@H]1CCCN(C(=O)c2cn(CCOCCOCCOCCCc3ccc4c(c3)CN(C3CCC(=O)NC3=O)C4=O)nn2)C1` (stereo partly specified), the DC50 (in general, the concentration at which degradation of the target reaches its halfway point) in assay [1] was 9.2 nM.
Regarding `CC#CC(=O)N1CC[C@@H](n2c(=O)n(-c3ccc(Oc4ccccc4)cc3)c3c(N)ncnc32)C1` [TIRABRUTINIB], the half-inhibitory concentration (IC50) (commonly the midpoint of a concentration-inhibition curve) in assay [2] worked out at 116 nM; in assay [3], 1130 nM.
As for `O=C1CCC(N2C(=O)c3ccc(NCCOCCOCCOCCOCCOCCNC(=O)N[C@H]4CC[C@@H](Nc5ncnc6[nH]cc(C(=O)c7ccc(Oc8ccccc8)cc7Cl)c56)CC4)cc3C2=O)C(=O)N1` (stereo partly specified), the DC50 in assay [4] stood at 41.9 nM.
`COc1ccc(F)cc1C(=O)NCc1ccc(-c2nn([C@@H](C)C(F)(F)F)c(N)c2C(N)=O)cc1` [PIRTOBRUTINIB] came in with a half-maximal inhibitory concentration (IC50) in assay [5] of less than 1 nM.
`Cc1cc(Nc2ncc3c(n2)N(C)CN(c2cc(NC(=O)c4cccc(C(F)(F)F)c4)ccc2C)C3)n(C)n1`: half-maximal inhibition in assay [6] (IC50) was put at 10.7 nM. This counts as double-digit nanomolar.
